The nature of data set [1]: Antiproliferative activity in MCF-7 human breast cancer cells. The class given is functional, cell-based, MCF7.
A short description of data set [2]: Lipophilicity was reported. The format is physicochemical. Conditions: human, octanol/water.
The nature of data set [3]: Antiproliferative activity in MDA-MB 231 human breast cancer cells. The class given is functional, cell-based, Cancer cell lines.
Data set [4] has as its system Cancer cell lines. Description: Content in MDA-MB 231 human breast cancer cell nuclei was reported. The class given is functional, cell-based.
In data set [5] the test system is Cancer cell lines. Description: Percentage of content in MCF-7 human breast cancer cell nuclei was reported. The class given is functional, cell-based.
For data set [6], the system named is Cancer cell lines. Nature of the data set: Percentage of content in MDA-MB 231 human breast cancer cell nuclei was reported. The class given is functional, cell-based.
A further data set concerns Nucleic Acid. Description: DNA-binding efficacy. The class given is nucleic-acid assay.
In data set [7] the test system is Cancer cell lines. Description: Content in MCF-7 human breast cancer cell nuclei was reported. The format is functional, cell-based.
Data set [8] has as its system Glutathione reductase (Homo sapiens). Nature of the data set: Percentage influence on cellular glutathione reductase activity.
The mark [9] stands for this setting: Homo sapiens, Cancer cell lines.

Usually IC50 stands for the point on the concentration scale where inhibition reaches its midpoint.

On to Co-ASS [listing 1 of 2 here], for which the IC50 in data set [1] (mcf7) turned out to be 1.4 µM; in data set [3] (cancer cell lines), 1.9 µM. In addition, in data set [2], the “Log Kw” value is listed as 4.91.

As for Co-ASS [listing 2 of 2 here], the Activity in the data set with Cancer cell lines [4] is 0.22 pmol/µg; in the data set with Cancer cell lines [5], 0.8%; in the data set with Cancer cell lines [6], 5%; in the data set with Nucleic Acid, 9.82 pmol/µg; with Cancer cell lines [7] it was 0.12 pmol/µg; in data set [8] it was 93%.

As to `N[C@@H](Cc1ccc(N(CCCl)CCCl)cc1)C(=O)O`, the IC50 in [1] (Homo sapiens, MCF7) came to 5.7 µM; in [3] (setting [9]) it was 3.9 µM.

With CISPLATIN, the IC50 was found to be 2 µM in data set [1] (mcf7) and 4 µM in data set [3] (cancer cell lines).

As to `O=c1[nH]cc(F)c(=O)[nH]1` [FLUOROURACIL], the concentration for half-maximal inhibition (IC50) in [1] (Homo sapiens, MCF7) was determined as 4.8 µM; in data set [3] (setting [9]) it was 9.6 µM.

Source of the values: ChEMBL document CHEMBL1141875, “Antitumor-active cobalt-alkyne complexes derived from acetylsalicylic acid: studies on the mode of drug action” (J Med Chem, 2005).
